From EP0394112A2, “Use of dipyrido(4,3-b)(3,4-f) indoles for the preparation of medicaments for the treatment of AIDS” (INSTITUT NATIONAL DE LA SANTE ET DE LA RECHERCHE MEDICALE …, priority 1989, dated 1990)
Like-named read-outs stand apart in the source and are kept apart here.

Tests used:
[1] = tested on: lignée cellulaire murine D55; conditions: 24 h treatment, D55 cells; read-out: concentrations affecting viabilité et morphologie des cellules de manière irréversible; cited from earlier work
virus HIV = type: cell-based, virus HIV 1; conditions: for production virale des lymphocytes périphériques infectés: added at the time of infection, figure 3
Description: Ce test a été réalisé comme suit.
Les lymphocytes humains ont été isolés sur gradient de Ficoll à partir du sang périphérique d'un donneur séronégatif. Préalablement au traitement, ils ont été stimulés par la phytohémagglutinine p (PHA-p) (Difco) pendant 3 jours. Ils sont ensuite maintenus en culture dans un milieu RPMI sans glutamine (GIBCO, Réf. 041.01870M, contenant 10 % de sérum de veau fétal (FLOW, Réf. 29.101.711), 1 % de glutamine (GIBCO, Réf. 043.05030H), 1 % d'une solution d'antibiotiques (GIBCO, PSN, Réf. 043.05640H), 10 % d'une solution d'interleukine 2 (BIOTEST, Réf. 81.1020), et […] de polybrène (SIGMA, Réf. 36F.3686 P. 4515).
Du trichlorhydrate de BD 40 (sel ci-après appelé BD 40) est ajouté aux doses non toxiques de 3,2 jusqu'à 25 ng/ml en même temps que l'infection virale. La production du virus dans le surnageant est mesurée par l'activité réverse transcriptase après concentration des cellules infectées par centrifugation.
Les résultats obtenus figurent sur les courbes de la figure 3 qui donne l'activité de transcriptase inverse (RT en ordonnées) en fonction du temps pour des quantités données de BD 40.

[2] = molecular target: T1, transcriptase inverse du virus HIV 1 (Human immunodeficiency virus type 1 group M subtype B, UniProt P04585); assay: Reverse transcriptase assay (direct enzyme inhibition, synthetic primer, 3H-labelled substrate); type: biochemical; conditions: figure 1
T1 construct: transcriptase inverse du virus HIV 1
Description: Le trichlorhydrate de BD 40 (sel ci-après appelé "BD 40"), obtenu par réaction de la base BD 40 en phase aqueuse avec une solution aqueuse d'acide chlorhydrique, a été testé dans un premier temps en tant qu'inhibiteur direct sur l'activité enzymatique de la transcriptase inverse du virus HIV 1.
L'activité enzymatique a été testée en utilisant une amorce synthétique et un substrat radiomarqué au H³ "in vitro" en présence de différentes doses du BD 40. La quantité de matériel radiomarqué précipité, exprimée en coups par minute, est proportionnelle à l'activité de la transcriptase inverse.
Les résultats obtenus figurent sur le graphe de la figure 1, sur laquelle on a porté en ordonnées, la quantité de matériel radiomarqué en coups par minute (RT en cpm) et en abscisses les quantités de BD 40 testées.

[3] = tested on: fibroblastes murins NIH - 3T3; conditions: 24 h treatment, NIH - 3T3 fibroblasts; read-out: concentrations affecting viabilité et morphologie des cellules de manière irréversible; cited from earlier work
virus HIV 1 [4] = assay: Infectivity test on PHA-stimulated peripheral lymphocytes (viral production followed by RT activity); type: cell-based; conditions: 12,5 ng/ml
Description: Les lymphocytes obtenus après stimulation à la PHA (Phytohémagglutinine) de cellules issues d'une cytaphérèse, ont été infectés par une dilution appropriée de virus HIV 1 afin d'obtenir un pic de production virale aux environs du quinzième jour après infection. Différentes doses du BD 40 ont été ajoutées au milieu de culture au moment de l'infection et pendant toute la culture afin de déterminer les doses toxiques et protectrices.
Pour déterminer le mécanisme d'action du composé, celui-ci a été ajouté à la culture soit pendant une période de préincubation des cellules avant infection, soit pendant toute la période de culture suivant l'infection.
Le suivi de la production virale des lymphocytes a été réalisé par dosage de l'activité de la transcriptase inverse dans la culture tous les 3 ou 4 jours.
Les résultats obtenus, avec le BD 40 à la concentration de 12,5 ng/ml, figurent sur les différentes courbes de la figure 2 qui expriment l'activité de la transcriptase inverse (RT en ordonnées) en fonction du temps en jours. • Fig. 2a : BD 40 ajouté pendant la période de préincubation des cellules avant infection. • Fig. 2b : BD 40 ajouté pendant la culture qui suit l'infection. • Fig. 2c : BD 40 ajouté à la culture, uniquement après l'infection. • Fig. 2d : Pas de BD 40. Contrôle HIV 1.

[5] = molecular target: T2, réverse transcriptase du virus HIV (Human immunodeficiency virus type 1 group M subtype B, UniProt P04585); assay: Clinical trial: reverse transcriptase activity in blood cells of treated AIDS patients; type: in vivo
T2 construct: mesures de l'activité réverse transcriptase (RT) dans les cellules sanguines; from tissue; host or cells: blood cells of AIDS patients treated with BD 40
Protocol: Lors d'un essai clinique chez 12 malades souffrant d'un SIDA avéré avec sarcome de Kaposi traités par des injections de trichlorhydrate de BD 40 en perfusion à des doses comprises entre 50 et 300 mg/m²/jour par cures de 3 jours consécutifs à intervalles de 3 semaines, des mesures de l'activité réverse transcriptase (RT) dans les cellules sanguines ont été pratiquées avant administration et aux 4e et 15e jours après le début de chaque cure.
La technique de mesure est la même que celle utilisée dans les tests II et III ci-dessus. Les résultats obtenus sont les suivants : - 8 cures sont évaluables à l'égard des critères adoptés, c'est-à-dire dans la mesure où l'activité réverse transcriptase a été mesurable pour le malade considéré et où sa valeur au jour 4 de la cure est encadrée par des valeurs connues au jour 15 de la cure précédente et au jour 15 de la cure considérée; - sur ces 8 cures évaluables, dans 7 cas la valeur au jour 4 est inférieure aux valeurs qui l'encadrent indiquant l'existence d'un inhibition nette de la réverse transcriptase; - sur ces 7 cas, dans 4 d'entre eux l'activité réverse transcriptase est ramenée à 0 (ou à une valeur négligeable, non significativement différente de 0); - sur ces 7 cas, si l'on normalise les valeurs obtenues en les exprimant en % de la valeur la plus élevée mesurée pour le malade considéré, les moyennes obtenues sont les suivantes : - RT au J15 de la cure précédente : 72,3 - RT au J4 de la […] : 9,7 - RT au J15 de la cure considérée : 62,4 l'inhibition est donc très évidente au 4e jour de la cure; - ces 7 cas sont obtenus aux doses suivantes (en mg/m2/administration) 2 fois à 50, 3 fois à 200, 1 fois à 250 et 1 fois à 300.

virus HIV 1 [6] = type: cell-based
Description: Les macrophages ont été isolés à partir du sang périphérique par adhérence. On les a infectés par du virus HIV 1 (de 5000 à 25000 cpm (RT en cpm par ml)). 3 à 7 jours après, les macrophages ont été éclatés par congélation/décongélation et le virus a été révélé par une coculture avec une lignée lymphoblastoïde (CEM ou lymphocytes du sang périphérique).
Différentes doses de trichlorhydrate de BD 40 (ci-après BD 40) ont été testées, le produit étant ajouté au milieu de culture au moment de l'infection.

[7] = mean of 7 cases, normalised values

For `CCN(CC)CCCNc1nccc2c(C)c3[nH]c4ccncc4c3cc12` [BD 40], the MCC [1] is listed as at least 100 nM, the “toxicity of doses for the lymphocyte culture” value (virus HIV) is listed as “non toxiques” and the “production virale des lymphocytes périphériques infectés” value (virus HIV; 25 ng/ml to 6,25 ng/ml) is listed as “inhibition très importante”. For the same compound, the “production virale des lymphocytes périphériques infectés” value (virus HIV; 3,12 ng/ml) was “un pic de production virale apparait d'un niveau inférieur à celui obtenu en l'absence d'inhibiteur”, the virus produit (virus HIV; highest non-toxic doses, up to day 42) was “absence totale de virus produit jusqu'au jour 42” and the “activité de la transcriptase inverse du virus HIV” value ([2]; BD 40 concentrations 1 mg/ml to 50 µg/ml) was “totalement inhibée”. For the same compound, the “activité de l'enzyme” value ([2]; from BD 40 concentration 5 µg/ml) was “du même niveau qu'en l'absence d'inhibiteur”, the MCC [3] was at least 100 nM and the “production virale de lymphocytes infectés” value (virus HIV 1 [4]; added to the culture only after infection (Fig. 2c)) was “un pic de production virale qui reste d'un niveau plus faible que le pic obtenu en l'absence d'inhibiteur”. For the same compound, the “production virale de lymphocytes infectés” value (virus HIV 1 [4]; present also during the culture after infection (Fig. 2b)) was “Le même résultat”, the “production virale de lymphocytes infectés” value (virus HIV 1 [4]; present during 1 h preincubation before infection (Fig. 2a)) was “inhiber totalement la production virale” and the “clinical tolerance of the doses” value ([5]; 50, 200, 250 and 300 mg/m2/administration, patients) was “cliniquement parfaitement tolérées”. The “RT au J4 de la cure précédente” value [5, 7] was 9,7 % de la valeur la plus élevée mesurée pour le malade considéré, the “RT au J15 de la cure considérée” value [5, 7] was 62,4 % de la valeur la plus élevée mesurée pour le malade considéré and the “RT au J15 de la cure précédente” value [5, 7] was 72,3 % de la valeur la plus élevée mesurée pour le malade considéré. For the same compound, the “cas où la valeur au jour 4 est inférieure aux valeurs qui l'encadrent (inhibition nette de la réverse transcriptase)” value ([5]; out of 8 evaluable courses, patients with AIDS and Kaposi sarcoma, infusion 50-300 mg/m²/jour, 3-day courses every 3 weeks) was 7 cas, the “cas où l'activité réverse transcriptase est ramenée à 0 (ou à une valeur négligeable)” value ([5]; out of the 7 cases with inhibition) was 4 and the “toxicity of doses for the macrophage culture” value (virus HIV 1 [6]) was “non toxiques”. For the same compound, the “retard d'apparition du virus” value (virus HIV 1 [6]; 10 and 15 ng/ml, added at the time of infection) was 2 jours and the réplication du virus (virus HIV 1 [6]; macrophages treated with BD 40, RT activity after coculture) was “inhibition partielle”.
